Values joined by “and” are separate entries in the source; they are usually repeats but may differ in a detail not shown here. Identical values can stand only once. No end group written: not given here.
How the values were obtained:
[1] = target: T1, PaAP_T (P. aeruginosa aminopeptidase, C-terminal truncated) (Pseudomonas aeruginosa, UniProt Q02PA2); experiment: Inhibition of PaAP_T in the Leu-pNA aminopeptidase assay (KI, IC50); format: biochemical; conditions: for IC50 plot data (PaAP_T activity at given peptide concentration): (S) = 2 mM, PaAP 100 nM, listed as ERWGHDFIK (linear)
T1 construct: PaAP (WT, residues 27–536); His6 (TEV cleavable) (N, cleaved yes); made in house; host or cells: E. coli SHuffle T7
T1 sequence (Q02PA2 37-516, looked up, natural form): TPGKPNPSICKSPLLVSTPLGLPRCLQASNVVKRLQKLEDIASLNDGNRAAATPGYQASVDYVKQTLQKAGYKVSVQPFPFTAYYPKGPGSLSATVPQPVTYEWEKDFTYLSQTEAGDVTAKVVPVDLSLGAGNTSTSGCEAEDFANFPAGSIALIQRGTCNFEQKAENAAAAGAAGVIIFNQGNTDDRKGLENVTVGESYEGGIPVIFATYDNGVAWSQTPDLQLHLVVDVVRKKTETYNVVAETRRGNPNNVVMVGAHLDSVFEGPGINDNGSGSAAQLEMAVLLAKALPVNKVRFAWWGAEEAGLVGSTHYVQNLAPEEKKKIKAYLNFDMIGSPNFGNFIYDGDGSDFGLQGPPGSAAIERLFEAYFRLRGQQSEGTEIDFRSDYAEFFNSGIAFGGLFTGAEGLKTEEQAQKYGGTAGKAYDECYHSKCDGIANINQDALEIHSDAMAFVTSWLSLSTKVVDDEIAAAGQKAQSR
Method: Aminopeptidase activity was determined spectrophotometrically primarily using amino Leu-pNA. Other commercially available pNA substrates (isoleucine, methionine, alanine, valine, proline, arginine, lysine and phenylalanine) were also assayed. Leu-pNA was incubated with enzyme (100 nM) in assay buffer (50 mM Tris, pH 8.5, 200 mM NaCl) at 25 °C. A pNA release caused an absorbance increase at 405 nm, monitored using a BMG Labtech plate reader. […] Data were plotted in GraphPad Prism (version 9) and the Michalis Menten equation was used for fitting.
Inhibition assays were carried out with the following peptides: linear-ERWGHDFIK (PaAP C-terminal residues), cyclic-ERWGHDFIK, N-acetylated and C-amidated ERWGHDFIK. IC50 values were determined by varying peptide concentration at a fixed substrate concentration (fixed at KM, (S) = 2 mM, PaAP concentration was 100 nM). […] KI values were determined by fitting the data to equation (1) (Morrison’s equation):1 v=1−Et+I+KI−Et+I+KI^2−4EtIKI/2Et where v is the velocity, Et is the total enzyme concentration, I is the concentration of inhibitor and KI is the equilibrium dissociation constant for the inhibitor. IC50 values increased when measured at increasing S, consistent with competitive inhibition.

PaAP = target: T2, PaAP (Pseudomonas aeruginosa, UniProt Q02PA2, A513L/Q514V/S515P); experiment: Peptide digestion assay (overnight and time course, LC-MS/MALDI); format: biochemical; conditions: for substrate of / degraded by PaAP (words): incubated with PaAP overnight, LC–MS or MALDI; for P0 (parent peptide, LC–MS signal): 500 μM peptide, 1 μM PaAP_T
T2 construct: PaAP (WT, residues 27–536); His6 (TEV cleavable) (N, cleaved yes); made in house; host or cells: E. coli SHuffle T7
T2 sequence (Q02PA2 37-516 A513L/Q514V/S515P): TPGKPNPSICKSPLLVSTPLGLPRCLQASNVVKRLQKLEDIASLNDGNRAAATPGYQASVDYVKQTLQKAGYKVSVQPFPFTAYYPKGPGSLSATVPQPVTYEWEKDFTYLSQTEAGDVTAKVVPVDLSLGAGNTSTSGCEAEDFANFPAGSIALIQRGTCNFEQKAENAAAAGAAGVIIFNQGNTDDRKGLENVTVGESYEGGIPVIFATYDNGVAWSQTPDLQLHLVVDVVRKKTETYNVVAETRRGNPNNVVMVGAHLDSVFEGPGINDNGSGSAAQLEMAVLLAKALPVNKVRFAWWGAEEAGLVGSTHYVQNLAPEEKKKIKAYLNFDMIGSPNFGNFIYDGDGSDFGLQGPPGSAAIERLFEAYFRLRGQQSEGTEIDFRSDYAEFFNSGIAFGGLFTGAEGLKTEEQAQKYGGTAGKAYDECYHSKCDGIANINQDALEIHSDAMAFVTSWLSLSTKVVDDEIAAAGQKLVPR
Method: A variety of peptides of varying lengths and compositions were incubated with PaAP at room temperature. Assays were performed by incubating (overnight at room temperature) 500 μM of substrate (peptides) with 1 μM enzyme (PaAP) in reaction buffer (50 mM Tris, pH 8.5, 100 mM NaCl). The reactions were quenched by heating to 100 °C for 10 min followed by centrifugation at 17,000g in a benchtop centrifuge to remove precipitate. Supernatant was collected and samples were analyzed by LC–MS. Initial trial assays were carried out in the presence and absence (control) of enzyme to determine if the substrate was degraded (single or triplicate experiments). Time-course assays were performed on selected peptide substrates in triplicate. A 300 μl reaction (including 500 μM of substrate) was initiated by the addition of 1 μM enzyme. The reaction was incubated at room temperature. The reaction was quenched at set timepoints by the removal of 30 μl aliquots, which were immediately heated to 100 °C for 10 min. The samples were analyzed by LC–MS using a Xevo Q-ToF (Waters) as described below, searching for masses of all peptide breakdown products.
Peptide degradation time courses were fitted to exponential equations as follows:
P0 peptide consumption was fitted to a single exponential equation (equation (2)) with the format2 yt=y0−Plateaue^−kt+Plateau
Time courses for the formation and decay of peptide intermediates were fitted to double exponential equations (equation (3)) and single exponential equations, followed by a linear phase (4)3 yt=y0−Plateau1e^−k1t+y0−Plateau2e^−k2t+Plateau 4 yt=y0−Plateaue^−kt+vt+Plateau where y(t) is the product formed at time t, y0 − Plateau is the amplitude of the exponential phase, k is the observed rate constant for the exponential phase, y0 is the value of y at time 0, Plateau is the value of y after exponential phase, C is the offset and v is the slope of the linear phase.
Peptide samples incubated in the presence and absence of PaAP were initially analyzed by MALDI. The peptide sample (0.5 µl at 10 µM) was spotted along with matrix (0.5 µl 10 mg ml^−1 α-cyano-4-hydroxycinnamic acid in ACN/0.1% TFA (50/50, vol/vol)) on a stainless steel MALDI plate and left to dry. The sample plate was loaded into a Sciex 4800 MALDI mass spectrometer. The laser voltage was adjusted to give a good signal to noise strength, and 50 shots were acquired in a random pattern across the spot and spectra combined. The spectra were externally calibrated with Sciex Pepcal mix (range: 500–4,000 m/z).

Sequence: ERWGHDFIK [linear-ERWGHDFIK]
- Ki [1]: 9.98 µM
- Slope ([1]; inhibitor 1 μM, [S] 0.125 mM): 21.4683 and 20.3052 and 17.979
- Slope ([1]; inhibitor 1 μM, [S] 0.25 mM): 41.2291 and 37.1458 and 30.365
- Slope ([1]; inhibitor 1 μM, [S] 0.5 mM): 67.9068 and 67.7954 and 67.0654
- Slope ([1]; inhibitor 1 μM, [S] 1 mM): 121.633 and 131.285 and 109.532
- Slope ([1]; inhibitor 1 μM, [S] 2 mM): 200.701 and 204.537 and 171.128
- Slope ([1]; inhibitor 1 μM, [S] 4 mM): 291.524 and 268.014 and 241.411
- Slope ([1]; inhibitor 5 μM, [S] 0.125 mM): 9.581 and 8.778 and 8.696
- Slope ([1]; inhibitor 5 μM, [S] 0.25 mM): 32.4809 and 31.8746 and 26.7767
- Slope ([1]; inhibitor 5 μM, [S] 0.5 mM): 59.2205 and 59.9629 and 55.5826
- Slope ([1]; inhibitor 5 μM, [S] 1 mM): 96.3415 and 104.397 and 108.74
- Slope ([1]; inhibitor 5 μM, [S] 2 mM): 181.646 and 174.716 and 170.509
- Slope ([1]; inhibitor 5 μM, [S] 4 mM): 244.875 and 240.668 and 225.201
- Slope ([1]; inhibitor 10 μM, [S] 0.125 mM): 20.5527 and 17.7562 and 12.5469
- Slope ([1]; inhibitor 10 μM, [S] 0.25 mM): 41.2291 and 35.2155 and 27.5686
- Slope ([1]; inhibitor 10 μM, [S] 0.5 mM): 78.3873 and 67.5108 and 53.8255
- Slope ([1]; inhibitor 10 μM, [S] 1 mM): 125.469 and 113.021 and 101.823
- Slope ([1]; inhibitor 10 μM, [S] 2 mM): 183.502 and 182.636 and 149.35
- Slope ([1]; inhibitor 10 μM, [S] 4 mM): 242.153 and 233.244 and 209.115
- Slope ([1]; inhibitor 25 μM, [S] 0.125 mM): 6.59 and 5.065
- Slope ([1]; inhibitor 25 μM, [S] 0.25 mM): 13.4378 and 10.2466 and 12.344
- Slope ([1]; inhibitor 25 μM, [S] 0.5 mM): 24.5618 and 19.0802 and 21.3817
- Slope ([1]; inhibitor 25 μM, [S] 1 mM): 49.4576 and 37.8759 and 44.6938
- Slope ([1]; inhibitor 25 μM, [S] 2 mM): 81.2827 and 58.2058 and 83.8441
- Slope ([1]; inhibitor 25 μM, [S] 4 mM): 157.641 and 123.551 and 157.764
- Slope ([1]; inhibitor 50 μM, [S] 0.25 mM): 11.9777 and 10.1576 and 8.79
- Slope ([1]; inhibitor 50 μM, [S] 0.5 mM): 21.0971 and 19.6494 and 15.7888
- Slope ([1]; inhibitor 50 μM, [S] 2 mM): 58.0945 and 62.2891 and 43.8276
- Slope ([1]; inhibitor 50 μM, [S] 4 mM): 81.3941 and 82.5449 and 61.3735
- Slope ([1]; inhibitor 100 μM, [S] 0.125 mM): 4.015 and 2.528
- Slope ([1]; inhibitor 100 μM, [S] 0.25 mM): 7.23 and 6.8674 and 5.4469
- Slope ([1]; inhibitor 100 μM, [S] 0.5 mM): 11.4246 and 12.4479 and 9.504
- Slope ([1]; inhibitor 100 μM, [S] 1 mM): 22.1736 and 23.0274 and 17.6325
- Slope ([1]; inhibitor 100 μM, [S] 2 mM): 38.6801 and 37.22 and 41.7859
- Slope ([1]; inhibitor 100 μM, [S] 4 mM): 61.8313 and 63.972 and 50.5094
- IC50 plot data (PaAP_T activity at given peptide concentration) ([1]; log(I) 0): 90.0485 and 96.6538 and 93.9669
- IC50 plot data (PaAP_T activity at given peptide concentration) ([1]; log(I) 0.39794): 67.4338 and 85.0852 and 79.5995
- IC50 plot data (PaAP_T activity at given peptide concentration) ([1]; log(I) 0.69897): 45.9385 and 56.7981 and 56.8354
- IC50 plot data (PaAP_T activity at given peptide concentration) ([1]; log(I) 1): 21.9729 and 26.522 and 23.891
- IC50 plot data (PaAP_T activity at given peptide concentration) ([1]; log(I) 1.39794): 12.1508 and 12.1918 and 12.9158
- IC50 plot data (PaAP_T activity at given peptide concentration) ([1]; log(I) 1.69897): 10.3856 and 11.9269 and 11.4231
- IC50 plot data (PaAP_T activity at given peptide concentration) ([1]; log(I) 2): 9.945 and 11.4156 and 11.076
- IC50 plot data (PaAP_T activity at given peptide concentration) ([1]; log(I) -0.30103): 92.6981 and 112.924 and 94.3774
- substrate of / degraded by PaAP (words) (PaAP): acts as a substrate
- substrate of / degraded by PaAP (words) (PaAP; listed as ERWGHDFIK): capable of processing
- P0 (parent peptide, LC–MS signal) (PaAP; time 0 minutes): 472729 and 388218 and 391107
- P0 (parent peptide, LC–MS signal) (PaAP; time 5 minutes): 463970 and 401514 and 388992
- P0 (parent peptide, LC–MS signal) (PaAP; time 10 minutes): 456641 and 389333 and 386619
- P0 (parent peptide, LC–MS signal) (PaAP; time 30 minutes): 422990 and 361623 and 355988
- P0 (parent peptide, LC–MS signal) (PaAP; time 60 minutes): 374560 and 318426 and 323916
- P0 (parent peptide, LC–MS signal) (PaAP; time 90 minutes): 323540 and 290204 and 288024
- P0 (parent peptide, LC–MS signal) (PaAP; time 120 minutes): 238229 and 257847
- P0 (parent peptide, LC–MS signal) (PaAP; time 1220 minutes): 623.109 and 431.795 and 326.884

Reference: publication PMC10449631 (Nature Chemical Biology, 2023)
